Literature values, collected in paper PMC9841982 (ACS Medicinal Chemistry Letters, 2022).

Key:
[1] = authors' earlier work with TAK-242
murine pancreatic islets = conditions: free TAK-242, murine islet transplantation

SMILES: CCOC(=O)C1=CCCC[C@H]1S(=O)(=O)Nc1ccc(F)cc1Cl [TAK-242, ethyl (6R)-6-[N-(2-Chloro-4-fluorophenyl)sulfamoyl]cyclohex-1-ene-1-carboxylate]
- sulfonamide bond stability [1]: relatively stable
- effect of free drug on islets and transplant outcome (murine pancreatic islets): reduced sterile inflammation-mediated stress in islets during isolation and promoted successful transplant outcomes
